One assay deals with T1, NanC (scheme A) (Streptococcus pneumoniae, UniProt A0A0H2UQE4).
T1 construct: gene SP_1326; residues 28-740, signal peptide removed (CBM plus catalytic domain); pET21b, E. coli Rosetta (DE3), nickel column; 82 kDa
Description: X-ray crystal structure, soak. Format: binding.

The target of a further assay is T2, NanC CBM (Streptococcus pneumoniae, UniProt A0A0H2UQE4).
T2 construct: gene SP_1326; purified by scheme A
Kind of assay: isothermal titration calorimetry. The following applies: 20 mM Tris pH 8, 50 mM NaCl; stoichiometry fixed 1:1; CBM site. Format: binding. In general terms: ITC needs no label: the signal is the heat of the interaction.

Molecules are shown by their SMILES.

For orientation: Kd means the concentration at which binding is half-saturated. Lower therefore signals tighter binding.

T1 sequence (A0A0H2UQE4 entry or part of it): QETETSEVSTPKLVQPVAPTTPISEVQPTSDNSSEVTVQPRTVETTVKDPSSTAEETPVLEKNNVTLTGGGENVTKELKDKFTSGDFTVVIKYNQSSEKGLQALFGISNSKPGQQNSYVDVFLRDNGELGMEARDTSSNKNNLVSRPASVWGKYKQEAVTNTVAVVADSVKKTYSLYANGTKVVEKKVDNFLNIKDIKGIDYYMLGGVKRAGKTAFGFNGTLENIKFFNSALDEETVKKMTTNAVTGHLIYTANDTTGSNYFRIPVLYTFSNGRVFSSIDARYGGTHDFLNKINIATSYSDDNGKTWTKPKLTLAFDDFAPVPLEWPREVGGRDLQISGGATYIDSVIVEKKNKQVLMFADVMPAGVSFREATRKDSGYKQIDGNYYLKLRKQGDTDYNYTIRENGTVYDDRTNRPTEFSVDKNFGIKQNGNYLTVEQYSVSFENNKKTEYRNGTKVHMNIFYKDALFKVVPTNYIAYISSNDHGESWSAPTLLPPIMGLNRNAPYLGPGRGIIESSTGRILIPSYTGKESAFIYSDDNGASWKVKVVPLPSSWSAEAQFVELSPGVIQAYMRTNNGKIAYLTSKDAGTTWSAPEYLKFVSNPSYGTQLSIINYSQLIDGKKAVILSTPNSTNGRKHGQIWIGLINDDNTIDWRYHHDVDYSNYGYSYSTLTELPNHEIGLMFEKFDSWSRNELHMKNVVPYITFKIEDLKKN
T2 sequence (A0A0H2UQE4 entry or part of it): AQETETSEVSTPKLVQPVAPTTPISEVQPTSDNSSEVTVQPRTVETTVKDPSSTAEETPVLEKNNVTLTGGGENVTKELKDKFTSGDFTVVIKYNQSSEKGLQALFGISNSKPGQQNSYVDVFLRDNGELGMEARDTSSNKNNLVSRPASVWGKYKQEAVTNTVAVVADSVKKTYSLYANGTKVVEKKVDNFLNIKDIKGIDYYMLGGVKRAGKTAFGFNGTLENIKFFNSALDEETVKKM

Turning to `CC(=O)N[C@H]1[C@H]([C@H](O)[C@H](O)CO)OC(F)(C(=O)O)C(F)[C@@H]1O` (stereo partly shown) [2,3F-Neu5Ac], the “X-ray crystal structure, soak” value on NanC (scheme A) (covalent, active site Tyr-695 adduct 3F-β-Neu5Ac, 5 mM, 45 min soak, intact compound also in CBM site) is recorded as 3F-β-Neu5Ac was covalently bound to Tyr-695 in an unstrained.
On to `CC(=O)N[C@H]1[C@H]([C@H](O)[C@H](O)CO)O[C@@](O[C@H]2[C@@H](O)[C@@H](CO)O[C@@H](O[C@H]3[C@H](O)[C@@H](O)C(O)O[C@@H]3CO)[C@@H]2O)(C(=O)O)C[C@@H]1O` (stereo partly shown) [3′SL], for which, at NanC CBM, binding was characterised by a dissociation constant (Kd) of 1480 µM.
As for `CC(=O)N[C@H]1[C@H]([C@H](O)[C@H](O)CO)O[C@@](OC[C@H]2O[C@@H](O[C@H]3[C@H](O)[C@@H](O)C(O)O[C@@H]3CO)[C@H](O)[C@@H](O)[C@H]2O)(C(=O)O)C[C@@H]1O` (stereo partly shown) [6′SL], the affinity at NanC CBM, expressed as Kd, was 1600 µM.
`CCC(CC)O[C@@H]1C=C(C(=O)O)C[C@H](N)[C@H]1NC(C)=O` [OC]: the “X-ray crystal structure, soak” value at NanC (scheme A) (catalytic active site, 20 mM, 5 min soak) is listed as “OC binds in the NanC active site”.

(Values after article PMC4646021, “Streptococcus pneumoniae NanC” (The Journal of Biological Chemistry, 2015).)
